The IC50 is the point on the concentration scale where inhibition reaches its midpoint.

This assay has as its target T1, human EHMT2 913-1193 (Homo sapiens, UniProt Q96KQ7).
T1 construct: recombinant purified human EHMT2 913-1193, Viva; purchased Viva
T1 sequence (Q96KQ7 913-1193): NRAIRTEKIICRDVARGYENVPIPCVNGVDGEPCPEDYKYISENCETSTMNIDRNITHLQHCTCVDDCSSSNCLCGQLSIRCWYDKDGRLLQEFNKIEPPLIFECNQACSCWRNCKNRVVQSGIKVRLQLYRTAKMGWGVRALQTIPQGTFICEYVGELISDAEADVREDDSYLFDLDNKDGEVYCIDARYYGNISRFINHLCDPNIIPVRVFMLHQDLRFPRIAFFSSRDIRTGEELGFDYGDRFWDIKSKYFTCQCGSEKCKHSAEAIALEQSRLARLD
The assay can be described thus: EHMT2 enzyme assay on histone peptide substrate (EHMT2 PEP). It counts as biochemical. The note with it: Table III; read-out: EHMT2 PEP (IC50 μM). In short, it runs like this: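 Inhibition is measured as reduced tritium incorporation into a biotinylated histone peptide from ^3H-SAM. The enzyme (0.031 nM) sees compound for 30 minutes before a 60-minute room-temperature reaction, which unlabeled SAM quenches prior to streptavidin Flashplate capture.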

The structures appear in SMILES notation.

Turning to `CNc1cc(C)nc(Nc2ccc(OC)c(O[C@H]3C[C@H](N(C)C)C3)c2)n1` (single isomer, unassigned) [Compound 329, N^2-(3-((1r,3r)-3-(dimethylamino)cyclobutoxy)-4-methoxyphenyl)-N^4,6-dimethylpyrimidine-2,4-diamine], the IC50 lay within 1 to 10 µM.
As for `COc1ccc(Nc2ccc3cnn(C)c3n2)cc1OCCCN1CCCC1` [Compound 257, N-(4-methoxy-3-(3-(pyrrolidin-1-yl)propoxy)phenyl)-1-methyl-1H-pyrazolo[3,4-b]pyridin-6-amine], the figure is above 10 µM.
For `COc1ccc(Nc2cc3c(cn2)ncn3C)cc1OCCCN1CCCC1` [Compound 258, N-(4-methoxy-3-(3-(pyrrolidin-1-yl)propoxy)phenyl)-1-methyl-1H-imidazo[4,5-c]pyridin-6-amine] the value was above 10 µM.
For `COc1ccc(Nc2nccc(NCC3CCOCC3)n2)cc1OC1CCC2(CC1)CCN(C)C2` (stereo not drawn) [Compound 259, N^2-(4-methoxy-3-((2-methyl-2-azaspiro[4.5]decan-8-yl)oxy)phenyl)-N^4-((tetrahydro-2H-pyran-4-yl)methyl)pyrimidine-2,4-diamine] the value was above 10 µM; for `COc1ccc(Nc2nccc(NCC3CCOCC3)n2)cc1OC1CCC2(CC1)CN(C)C2` [Compound 260, N^2-(4-methoxy-3-((2-methyl-2-azaspiro[3.5]nonan-7-yl)oxy)phenyl)-N^4-((tetrahydro-2H-pyran-4-yl)methyl)pyrimidine-2,4-diamine], above 10 µM.
As to `CNc1cnnc(Nc2cc(OCCCN3CCCC3)c(OC)cn2)c1` [Compound 322, N^3-(5-methoxy-4-(3-(pyrrolidin-1-yl)propoxy)pyridin-2-yl)-N^5-methylpyridazine-3,5-diamine], the IC50 was below 0.1 µM.
For `CNc1cc(Nc2cc(OCCCN3CCCC3)c(OC)cn2)cnn1` [Compound 323, N^5-(5-methoxy-4-(3-(pyrrolidin-1-yl)propoxy)pyridin-2-yl)-N^3-methylpyridazine-3,5-diamine], the 50% inhibitory concentration (IC50) is above 10 µM.
As for `CNc1cc(Nc2cc(OCCCN3CCCC3)c(OC)cn2)ncn1` [Compound 324, N^4-(5-methoxy-4-(3-(pyrrolidin-1-yl)propoxy)pyridin-2-yl)-N^6-methylpyrimidine-4,6-diamine], the figure is 1 to 10 µM.
For `CNc1cc(Nc2cc(OCCCN3CCCC3)c(OC)cn2)nc(C)n1` [Compound 325, N^4-(5-methoxy-4-(3-(pyrrolidin-1-yl)propoxy)pyridin-2-yl)-N^6,2-dimethylpyrimidine-4,6-diamine] the value was 1 to 10 µM.
As for `COc1cnc(Nc2nc(C)nc3[nH]ccc23)cc1OCCCN1CCCC1` [Compound 326, N-(5-methoxy-4-(3-(pyrrolidin-1-yl)propoxy)pyridin-2-yl)-2-methyl-7H-pyrrolo[2,3-d]pyrimidin-4-amine], the figure is 0.1 to 1 µM.
Take `CNc1nc(Nc2ccc(OC)c(OCCCN3CCCC3)c2)nc2c1CCC2` [Compound 328, N^2-(4-methoxy-3-(3-(pyrrolidin-1-yl)propoxy)phenyl)-N^4-methyl-6,7-dihydro-5H-cyclopenta[d]pyrimidine-2,4-diamine]: the IC50 is 0.1 to 1 µM.
As for `CNc1cc(C)nc(Nc2ccc(OC)c(OC[C@H]3C[C@H](N(C)C)C3)c2)n1` [Compound 330], the figure is above 10 µM.
As for `CNc1cc(C)nc(Nc2ccc(OC)c(O[C@H]3C[C@H](CN(C)C)C3)c2)n1` [Compound 331, N^2-(3-((1r,3r)-3-((dimethylamino)methyl)cyclobutoxy)-4-methoxyphenyl)-N^4,6-dimethylpyrimidine-2,4-diamine], the figure is above 10 µM; as for `CNc1cc(C)nc(Nc2cnc(OC)c(OCCCN3CCCC3)c2)n1` [Compound 332, N^2-(6-methoxy-5-(3-(pyrrolidin-1-yl)propoxy)pyridin-3-yl)-N^4,6-dimethylpyrimidine-2,4-diamine], below 0.1 µM.
As for `CCn1nc(Nc2nccc3[nH]ccc23)cc1COCCN1CCCC1` [Compound 333], the figure is 1 to 10 µM.

These data come from US20210198277A1, “AMINE-SUBSTITUTED ARYL OR HETEROARYL COMPOUNDS” (Epizyme, Inc., priority 2016, published 2021).
